Measured values reported in article PMC6009956, “Design, synthesis and biological activity of N^4-phenylsubstituted-7H-pyrrolo[2,3-d]pyrimidin-4-amines as dual inhibitors of aurora kinase A and epidermal growth factor receptor kinase” (Journal of Enzyme Inhibition and Medicinal Chemistry, 2017).
Like-named read-outs stand apart in the source and are kept apart here.

Key:
[1] = target: EGFR (Homo sapiens, UniProt P00533); test: ADP-Glo kinase assay, EGFR; type: biochemical; parameters: purchased BPS Bioscience (assay run externally by the vendor)
[2] = tested on: EGFR (pEGFR, pERK, p-AKT) in BHY cells; test: Western blot of EGFR downstream targets in BHY cells; type: cell-based; conditions: 100 μM
Description: Protein extracts (50 μg per lane) were electrophoretically separated on SDS-PAGE gels, transferred to membranes (Protran, Schleicher & Schuell, Dassel, Germany) and blotted with specific antibodies (actin, aurora A, aurora B: all from Sigma, Munich, Germany; S10-HH3: Millipore, Schwalbach, Germany; EGFR: Santa Cruz, Heidelberg, Germany; pEGFR: Invitrogen, Darmstadt, Germany; pAKT, pERK: both from New England Biolabs, Frankfurt, Germany).
Figure 4. Effects of compound 2 on EGFR and aurora kinases in growing SCCHN cell lines (A) Western blot analysis of EGFR (pEGFR, pERK, p-AKT) and aurora A (p-HH3) downstream target proteins following incubation with 100 μM compound 2 for the indicated time points in BHY and FADU SCCHN cell lines. (B) BHY and CAL cell lines treated for the indicated time points with 200 nM cetuximab. Western blot analysis of EGFR downstream targets. (long exposure and short exposure). […] Western blot analysis of p-HH3 at the indicated time points. Asterisk (*) represents unspecific band.

[3] = tested on: FADU cells; test: Cell killing, PI staining and FACS, FADU; type: cell-based
Description: (§1) FADU, BHY, SAS and CAL cell lines were obtained from ATCC-LGC and were cultured in DMEM (Invitrogen, Germany) supplemented with 10% of heat activated bovine serum (FBS, PAA, Germany), 1% of glutamine, 1% of penicillin-streptomycin (Invitrogen, Germany). To measure proliferation, SCCHN cells were split, reseeded (5 × 10^5 in 25 cm^2 flasks) and counted at the indicated time points. Cells were then replated at the initial density. The fold increase in cell number was calculated, all given results are based on triplicate experiments. To assess cell death 5 × 10^5 cells were stained with propidium iodide (PI, Sigma, Germany). Following incubation, cells were washed, resuspended in PBS, and analysed by flow cytometry. The fraction of PI-positive cells is reported as dead cell fraction.
(§2) Figure 3. […] Cells were incubated with compound 2 for 48 h and then subjected to PI staining and FACS analysis. PI-positive cell fraction as measure of cell death is reported. (B) Four SCCHN cell lines were incubated with 100 μM of compound 2 and counted on the indicated days. Experiments in triplicates, fold growth shown. (C) EGFR expression of SCCHN cell lines. EGFR high and low as detected by western blot analysis (D) The SCCHN cell lines were incubated with 100 μM of compound 2 for 72 h. Percent PI positive cells are given. Experiments in triplicates.

[4] = tested on: SAS cells; test: Cell killing, PI staining and FACS, SAS; type: cell-based; conditions: 100 µM, 72 h
Description: as §1, §2

[5] = tested on: BHY cells; test: Proliferation (cell counting), BHY; type: cell-based; conditions: 100 µM
Description: as §1, §2

[6] = tested on: SAS cells; test: Proliferation (cell counting), SAS; type: cell-based; conditions: 100 µM
Description: as §1, §2

[7] = tested on: FADU cells; test: Proliferation (cell counting), FADU; type: cell-based; conditions: 100 µM
Description: as §1, §2

[8] = target: T1, AURKB (Homo sapiens, UniProt Q96GD4); test: DiscoverX competition binding assay, AURKB; conditions: read-out: Binding constant (Kd) AURKB
T1 construct: purchased DiscoverX Corporation (assay run externally by the vendor)
Description: The assay was performed externally at DiscoverX Corporation using a competition binding assay that quantitatively measures the ability of a compound to compete with an immobilised, active-site directed ligand[24]. The assay is performed by combining three components: DNA-tagged kinase, immobilised ligand and a test compound. The ability of the test compound to compete with the immobilised ligand was measured via quantitative PCR of the DNA tag. An 11-point 3-fold serial dilution of each test compound was prepared in 100% of DMSO at 100× final test concentration and subsequently diluted to 1× in the assay (final DMSO concentration = 1%). […] Binding constants (Kd) were calculated with a standard dose-response curve using the Hill equation.
Binding Affinities for EGFR, AURKA and AURKB
The assay was performed externally at DiscoverX Corporation using a competition binding assay that quantitatively measures the ability of a compound to compete with an immobilized, active-site directed ligand for target kinases AURKA, AURKB and EGFR.23 The assay is performed by combining three components: DNA-tagged kinase; immobilized ligand; and a test compound. The ability of the test compound to compete with the immobilized ligand was measured via quantitative PCR of the DNA tag. […] Compound Kds were determined using a compound top […]

[9] = tested on: CAL cells; test: Proliferation (cell counting), CAL; type: cell-based; conditions: 100 µM
Description: as §1, §2

Chain of EGFR (P00533 25-1210): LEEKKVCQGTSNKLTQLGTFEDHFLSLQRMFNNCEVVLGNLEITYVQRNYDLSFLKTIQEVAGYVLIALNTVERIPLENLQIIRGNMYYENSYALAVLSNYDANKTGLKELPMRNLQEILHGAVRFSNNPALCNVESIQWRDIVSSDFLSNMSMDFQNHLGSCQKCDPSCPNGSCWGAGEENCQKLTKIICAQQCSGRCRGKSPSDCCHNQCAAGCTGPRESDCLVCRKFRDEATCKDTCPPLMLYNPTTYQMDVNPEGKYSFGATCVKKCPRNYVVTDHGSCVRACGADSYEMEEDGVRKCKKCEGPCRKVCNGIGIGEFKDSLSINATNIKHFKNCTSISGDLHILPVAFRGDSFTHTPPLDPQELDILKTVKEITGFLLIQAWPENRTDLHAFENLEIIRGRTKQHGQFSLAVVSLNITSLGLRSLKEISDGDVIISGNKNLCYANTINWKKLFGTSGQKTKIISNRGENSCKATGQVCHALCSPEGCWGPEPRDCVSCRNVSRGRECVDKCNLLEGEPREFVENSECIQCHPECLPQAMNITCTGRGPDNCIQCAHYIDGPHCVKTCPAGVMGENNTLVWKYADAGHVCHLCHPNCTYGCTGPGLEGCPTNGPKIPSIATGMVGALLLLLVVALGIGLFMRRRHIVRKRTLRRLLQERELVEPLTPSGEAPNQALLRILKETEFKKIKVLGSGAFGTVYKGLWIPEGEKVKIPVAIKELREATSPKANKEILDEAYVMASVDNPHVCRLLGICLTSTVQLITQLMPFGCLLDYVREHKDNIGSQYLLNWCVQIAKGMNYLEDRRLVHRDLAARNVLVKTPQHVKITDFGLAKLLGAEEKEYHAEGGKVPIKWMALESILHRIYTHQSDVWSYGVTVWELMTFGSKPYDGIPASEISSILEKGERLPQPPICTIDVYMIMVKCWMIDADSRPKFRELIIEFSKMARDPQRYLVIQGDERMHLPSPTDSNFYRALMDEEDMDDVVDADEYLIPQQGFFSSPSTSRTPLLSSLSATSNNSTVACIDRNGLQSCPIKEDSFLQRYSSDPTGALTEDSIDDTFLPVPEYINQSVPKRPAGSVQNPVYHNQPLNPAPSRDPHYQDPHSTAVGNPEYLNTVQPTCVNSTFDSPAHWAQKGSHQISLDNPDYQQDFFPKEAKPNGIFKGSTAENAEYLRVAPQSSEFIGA
T1 sequence (Q96GD4 whole entry): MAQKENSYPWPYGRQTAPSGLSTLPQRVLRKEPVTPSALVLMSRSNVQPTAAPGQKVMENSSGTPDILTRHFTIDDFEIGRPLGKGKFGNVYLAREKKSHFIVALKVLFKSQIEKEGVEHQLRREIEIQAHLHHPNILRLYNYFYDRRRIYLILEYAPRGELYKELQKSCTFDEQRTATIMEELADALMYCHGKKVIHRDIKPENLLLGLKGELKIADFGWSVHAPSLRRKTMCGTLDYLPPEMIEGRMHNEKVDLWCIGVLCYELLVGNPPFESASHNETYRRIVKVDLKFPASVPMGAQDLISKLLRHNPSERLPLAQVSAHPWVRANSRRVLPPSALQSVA

Brc1cccc(Nc2ncnc3[nH]ccc23)c1 [Compound 2, N^4-(3-bromophenyl)-7H-pyrrolo[2,3-d]pyrimidine-4-amine]
EGFR inhibition (in words) [1]: single-digit nanomolar EGFR inhibition
IC50 ([1]; 10 µM ATP, triplicate, read-out: EGFR IC50 ± SD): 0.00376 ± 0.00012 µM
IC50 ([1]; 10 µM ATP/0.2 mg/ml Poly-Glu-Tyr, read-out: EGFR IC50 (dose-response curve, supplement)): 0.0038 µM
EGFR % Activity Set1 ([1]; Log[nM] 0): 43%
EGFR % Activity Set2 ([1]; Log[nM] 0): 41%
EGFR % Activity Set3 ([1]; Log[nM] 0): 41%
EGFR % Activity Set1 ([1]; Log[nM] 1.0): 29%
EGFR % Activity Set2 ([1]; Log[nM] 1.0): 29%
EGFR % Activity Set3 ([1]; Log[nM] 1.0): 28%
EGFR % Activity Set1 ([1]; Log[nM] 1.5): 11%
EGFR % Activity Set2 ([1]; Log[nM] 1.5): 9%
EGFR % Activity Set3 ([1]; Log[nM] 1.5): 11%
EGFR % Activity Set1 ([1]; Log[nM] 2.0): 6%
EGFR % Activity Set2 ([1]; Log[nM] 2.0): 6%
EGFR % Activity Set3 ([1]; Log[nM] 2.0): 6%
EGFR % Activity Set1 ([1]; Log[nM] 2.5): 3%
EGFR % Activity Set2 ([1]; Log[nM] 2.5): 2%
EGFR % Activity Set3 ([1]; Log[nM] 2.5): 3%
EGFR % Activity Set1 ([1]; Log[nM] 3.0): 1%
EGFR % Activity Set2 ([1]; Log[nM] 3.0): 1%
EGFR % Activity Set3 ([1]; Log[nM] 3.0): 1%
EGFR % Activity Set1 ([1]; Log[nM] 3.5): 1%
EGFR % Activity Set2 ([1]; Log[nM] 3.5): 1%
EGFR % Activity Set3 ([1]; Log[nM] 3.5): 0%
EGFR % Activity Set1 ([1]; Log[nM] 4.0): 0%
EGFR % Activity Set2 ([1]; Log[nM] 4.0): 0%
EGFR % Activity Set3 ([1]; Log[nM] 4.0): 0%
EGFR % Activity Set1 ([1]; Log[nM] 4.5): 0%
EGFR % Activity Set2 ([1]; Log[nM] 4.5): 0%
EGFR % Activity Set3 ([1]; Log[nM] 4.5): 0%
EGFR % Activity Set1 ([1]; Log[nM] 5.0): 0%
EGFR % Activity Set2 ([1]; Log[nM] 5.0): 0%
EGFR % Activity Set3 ([1]; Log[nM] 5.0): 0%
EGFR-mediated phosphorylation steps (pEGFR, pERK, p-AKT) [2]: modified
Cell killing (PI positive cells) ([3]; FADU, 100 µM, 72 h): efficient cell killing
IC50 ([3]; Homo sapiens, FaDu, 48 h, read-out: IC50 cellular killing (PI-positive fraction)): 150 µM
Cell killing (PI positive cells) [4]: efficient cell killing
Cell growth (fold growth) [5]: completely inhibited cell growth
Cell growth (fold growth) [6]: completely inhibited cell growth
Cell growth (fold growth) [7]: completely inhibited cell growth
Kd [8]: 4.8 µM
Cell growth (fold growth) [9]: completely inhibited cell growth
